Assay results taken from ChEMBL document CHEMBL4017477, “Synthesis and evaluation of 4,6-disubstituted pyrimidines as CNS penetrant pan-muscarinic antagonists with a novel chemotype” (Bioorg Med Chem Lett, 2017).

Columns and labels:
[1] = target: T1, Muscarinic acetylcholine receptor M4 (Homo sapiens, UniProt P08173); experiment: Antagonist activity at recombinant human M4 receptor expressed in CHO cells co-expressing Gqi5 by calcium mobilization assay; format: functional, cell-based
T1 sequence (P08173 whole entry): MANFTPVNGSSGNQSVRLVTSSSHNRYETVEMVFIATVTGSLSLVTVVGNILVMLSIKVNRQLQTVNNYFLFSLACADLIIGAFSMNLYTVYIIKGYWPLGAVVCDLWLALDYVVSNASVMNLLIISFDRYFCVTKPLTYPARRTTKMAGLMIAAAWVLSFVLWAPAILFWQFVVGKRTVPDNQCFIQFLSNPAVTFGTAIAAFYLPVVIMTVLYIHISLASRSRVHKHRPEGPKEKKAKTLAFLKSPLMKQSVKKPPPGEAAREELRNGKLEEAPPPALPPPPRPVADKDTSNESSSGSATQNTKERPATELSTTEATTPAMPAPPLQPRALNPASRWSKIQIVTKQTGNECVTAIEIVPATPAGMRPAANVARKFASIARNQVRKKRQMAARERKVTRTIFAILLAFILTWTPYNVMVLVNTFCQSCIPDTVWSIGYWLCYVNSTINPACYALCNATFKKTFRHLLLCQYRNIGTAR

[2] = target: T2, Muscarinic acetylcholine receptor M4 (Homo sapiens) (UniProt P08173); experiment: Antagonist activity at recombinant human M4 receptor expressed in CHO cells co-expressing Gqi5 by calcium mobilization assay relative to acetylcholine; format: functional, cell-based
T2 sequence (whole entry): T1 sequence (P08173 whole entry)

[3] = target: T3, Muscarinic acetylcholine receptor M5 (Homo sapiens) (UniProt P08912); experiment: Antagonist activity at recombinant human M5 receptor expressed in CHO cells co-expressing Gqi5 by calcium mobilization assay relative to acetylcholine; format: functional, cell-based
T3 sequence (whole entry): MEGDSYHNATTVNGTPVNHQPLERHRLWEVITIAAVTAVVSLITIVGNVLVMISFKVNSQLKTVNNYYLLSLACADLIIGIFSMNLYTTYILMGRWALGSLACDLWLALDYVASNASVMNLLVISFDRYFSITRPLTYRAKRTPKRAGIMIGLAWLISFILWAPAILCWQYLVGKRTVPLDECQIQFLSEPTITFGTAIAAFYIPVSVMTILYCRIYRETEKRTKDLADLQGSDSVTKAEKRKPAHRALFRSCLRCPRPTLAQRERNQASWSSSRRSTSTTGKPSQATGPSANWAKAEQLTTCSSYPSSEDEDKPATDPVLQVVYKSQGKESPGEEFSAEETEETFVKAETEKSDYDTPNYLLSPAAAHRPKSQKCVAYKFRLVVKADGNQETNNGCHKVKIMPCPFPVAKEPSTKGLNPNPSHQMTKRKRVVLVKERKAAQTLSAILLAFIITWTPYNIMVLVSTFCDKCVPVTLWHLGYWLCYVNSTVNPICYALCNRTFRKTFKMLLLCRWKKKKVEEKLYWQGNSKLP

[4] = target: T4, Muscarinic acetylcholine receptor M5 (Homo sapiens, UniProt P08912); experiment: Antagonist activity at recombinant human M5 receptor expressed in CHO cells co-expressing Gqi5 by calcium mobilization assay; format: functional, cell-based
T4 sequence (P08912 whole entry): T3 sequence (whole entry)

[5] = target: T5, Muscarinic acetylcholine receptor M3 (Homo sapiens, UniProt P20309); experiment: Antagonist activity at recombinant human M3 receptor expressed in CHO cells co-expressing Gqi5 by calcium mobilization assay; format: functional, cell-based
Target sequence in this assay (P20309 whole entry): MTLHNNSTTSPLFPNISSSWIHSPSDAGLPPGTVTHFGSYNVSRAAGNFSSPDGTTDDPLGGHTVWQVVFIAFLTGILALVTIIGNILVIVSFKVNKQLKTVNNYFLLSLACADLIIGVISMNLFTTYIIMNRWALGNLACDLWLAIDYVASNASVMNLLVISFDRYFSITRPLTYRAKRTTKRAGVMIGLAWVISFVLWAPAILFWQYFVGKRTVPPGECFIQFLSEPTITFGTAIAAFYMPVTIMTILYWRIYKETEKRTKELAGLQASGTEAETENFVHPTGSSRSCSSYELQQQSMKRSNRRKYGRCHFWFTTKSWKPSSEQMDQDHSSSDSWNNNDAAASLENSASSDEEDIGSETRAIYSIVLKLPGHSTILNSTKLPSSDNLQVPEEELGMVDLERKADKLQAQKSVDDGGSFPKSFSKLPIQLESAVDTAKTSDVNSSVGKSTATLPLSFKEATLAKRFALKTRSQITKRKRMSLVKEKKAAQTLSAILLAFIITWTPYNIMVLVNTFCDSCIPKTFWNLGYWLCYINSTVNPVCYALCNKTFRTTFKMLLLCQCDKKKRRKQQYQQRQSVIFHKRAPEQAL

[6] = target: T5, Muscarinic acetylcholine receptor M3; experiment: Antagonist activity at recombinant human M3 receptor expressed in CHO cells co-expressing Gqi5 by calcium mobilization assay relative to acetylcholine; format: functional, cell-based
Target sequence in this assay (P20309 whole entry, looked up): as the sequence (P20309 whole entry) above

[7] = target: T6, Muscarinic acetylcholine receptor M1 (Homo sapiens) (UniProt P11229); experiment: Antagonist activity at recombinant human M1 receptor expressed in CHO cells co-expressing Gqi5 by calcium mobilization assay relative to acetylcholine; format: functional, cell-based
T6 sequence (whole entry): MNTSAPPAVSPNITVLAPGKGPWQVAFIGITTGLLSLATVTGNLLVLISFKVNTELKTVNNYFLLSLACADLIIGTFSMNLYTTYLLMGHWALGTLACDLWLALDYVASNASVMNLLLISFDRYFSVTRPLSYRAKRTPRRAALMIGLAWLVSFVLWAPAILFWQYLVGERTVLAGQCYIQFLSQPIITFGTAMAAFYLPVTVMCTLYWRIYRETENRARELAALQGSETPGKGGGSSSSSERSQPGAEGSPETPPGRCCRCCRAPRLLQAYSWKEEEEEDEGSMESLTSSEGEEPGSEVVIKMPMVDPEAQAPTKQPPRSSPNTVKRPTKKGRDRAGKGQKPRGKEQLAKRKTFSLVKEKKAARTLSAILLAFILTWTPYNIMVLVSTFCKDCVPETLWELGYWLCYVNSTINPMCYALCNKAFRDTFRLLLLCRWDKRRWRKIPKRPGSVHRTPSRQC

[8] = target: T7, Muscarinic acetylcholine receptor M2 (Homo sapiens) (UniProt P08172); experiment: Antagonist activity at recombinant human M2 receptor expressed in CHO cells co-expressing Gqi5 by calcium mobilization assay relative to acetylcholine; format: functional, cell-based
T7 sequence (whole entry): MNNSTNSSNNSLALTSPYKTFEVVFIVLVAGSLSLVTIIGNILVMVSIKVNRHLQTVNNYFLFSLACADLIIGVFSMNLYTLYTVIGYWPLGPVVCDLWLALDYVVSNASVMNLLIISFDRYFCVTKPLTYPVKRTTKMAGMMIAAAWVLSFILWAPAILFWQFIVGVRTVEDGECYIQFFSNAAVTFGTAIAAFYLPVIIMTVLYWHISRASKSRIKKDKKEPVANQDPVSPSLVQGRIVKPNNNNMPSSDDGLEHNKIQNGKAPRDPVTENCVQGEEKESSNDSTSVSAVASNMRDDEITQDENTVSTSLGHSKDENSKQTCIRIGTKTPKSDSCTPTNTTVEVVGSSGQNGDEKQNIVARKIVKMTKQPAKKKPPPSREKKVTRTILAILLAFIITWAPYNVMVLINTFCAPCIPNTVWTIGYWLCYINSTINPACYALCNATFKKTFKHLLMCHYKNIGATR

[9] = target: T8, Muscarinic acetylcholine receptor M2 (Homo sapiens, UniProt P08172); experiment: Antagonist activity at recombinant human M2 receptor expressed in CHO cells co-expressing Gqi5 by calcium mobilization assay; format: functional, cell-based
T8 sequence (P08172 whole entry): T7 sequence (whole entry)

[10] = target: T9, Muscarinic acetylcholine receptor M1 (Homo sapiens, UniProt P11229); experiment: Antagonist activity at recombinant human M1 receptor expressed in CHO cells co-expressing Gqi5 by calcium mobilization assay; format: functional, cell-based
T9 sequence (P11229 whole entry): T6 sequence (whole entry)

[11] = Brain to plasma partition coefficient, Kp of the compound in rat; format: ADME
[12] = Ratio of unbound brain to plasma concentration in rat; format: ADME
Brain = experiment: Unbound brain concentration in rat; format: ADME, tissue-based; conditions: in vivo
Plasma [13] = experiment: Unbound plasma concentration in human; format: ADME, cell-free
[14] = target: T10, Muscarinic acetylcholine receptor M4 (Rattus norvegicus) (UniProt P08485); experiment: Antagonist activity at rat M4 receptor by calcium mobilization assay relative to acetylcholine; format: functional
T10 sequence (whole entry): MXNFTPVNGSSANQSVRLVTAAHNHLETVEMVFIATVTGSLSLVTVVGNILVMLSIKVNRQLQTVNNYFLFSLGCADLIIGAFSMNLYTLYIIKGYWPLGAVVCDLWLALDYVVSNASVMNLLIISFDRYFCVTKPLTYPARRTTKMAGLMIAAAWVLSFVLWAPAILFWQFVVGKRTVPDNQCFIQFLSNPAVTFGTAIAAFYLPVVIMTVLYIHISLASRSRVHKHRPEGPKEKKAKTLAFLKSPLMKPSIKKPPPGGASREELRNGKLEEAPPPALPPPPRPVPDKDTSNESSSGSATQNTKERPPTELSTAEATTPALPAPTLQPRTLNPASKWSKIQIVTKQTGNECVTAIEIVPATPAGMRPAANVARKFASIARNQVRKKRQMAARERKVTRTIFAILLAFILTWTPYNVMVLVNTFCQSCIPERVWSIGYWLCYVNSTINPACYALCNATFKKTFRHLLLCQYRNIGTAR

[15] = target: T11, Muscarinic acetylcholine receptor M4 (Rattus norvegicus, UniProt P08485); experiment: Antagonist activity at rat M4 receptor by calcium mobilization assay; format: functional
T11 sequence (P08485 whole entry): T10 sequence (whole entry)

Plasma [16] = experiment: Unbound plasma concentration in rat; format: ADME, cell-free

SMILES	IC50 ([1]; read-out: IC50) [nM]	Emin [2] [%]	IC50 ([1]; read-out: pIC50 (converted)) [nM]	other results
O=C(C1CCN(c2cc(Oc3ccc(Cl)cc3F)ncn2)CC1)N1CCc2ccccc2C1	150	3.1	–	–
O=C(C1CCN(c2cc(Oc3ccc(Cl)cc3Cl)ncn2)CC1)N1CCc2ccccc2C1	270	3	–	–
O=C(C1CCN(c2cc(Oc3ccccc3)ncn2)CC1)N1CCc2ccccc2C1	650	2.7	617	–
O=C(C1CCN(c2cc(Oc3ccc(F)cc3F)ncn2)CC1)N1CCC2CCCCC2C1 (configuration not stated)	410	5.1	–	–
O=C(C1CCN(c2cc(Oc3ccc(Cl)cc3)ncn2)CC1)N1CCc2ccccc2C1	140	3	132	Emin [3]: < 6%; IC50 [4]: 695 nM; IC50 [5]: 365 nM; Emin [6]: < 6%; Emin [7]: < 6%; Emin [8]: < 6%; IC50 [9]: 352 nM; IC50 [10]: 313 nM
O=C(NCc1ccccc1)C1CCN(c2cc(Oc3ccc(F)cc3F)ncn2)CC1	> 10000	–	–	–
Cc1ccc(Oc2cc(N3CCC(C(=O)N4CCc5ccccc5C4)CC3)ncn2)cc1	310	3.3	–	–
O=C(C1CCN(c2cc(Oc3ccc(F)cc3F)ncn2)CC1)N1CCc2cc(C(F)(F)F)ccc2C1	> 10000	–	–	–
O=C(C1CCN(c2cc(Oc3ccc4ccccc4c3)ncn2)CC1)N1CCc2ccccc2C1	–	6.8	–	–
O=C(C1CCN(c2cc(Oc3cc(F)ccc3F)ncn2)CC1)N1CCc2ccccc2C1	80	3.1	–	–
O=C(C1CCN(c2cc(Oc3ccc(F)cc3)ncn2)CC1)N1CCc2ccccc2C1	240	3.5	229	–
O=C(C1CCN(c2cc(Oc3ccc(F)cc3F)ncn2)CC1)N1CCCc2ccccc2C1	1040	6	–	–
O=C(C1CCN(c2cc(Oc3cccc(F)c3F)ncn2)CC1)N1CCc2ccccc2C1	190	3.1	170	–
O=C(C1CCN(c2cc(Oc3c(F)cccc3F)ncn2)CC1)N1CCc2ccccc2C1	–	7	–	–
O=C(C1CCN(c2cc(Oc3ccccc3F)ncn2)CC1)N1CCc2ccccc2C1	130	3.2	123	Emin [3]: < 6%; Kp ([11]; brain/plasma, read-out: Kp): 0.68; IC50 [4]: 732 nM; IC50 [5]: 404 nM; Emin [6]: < 6%; Kp uu ([12]; brain/plasma, read-out: K(p,uu,brain)): 0.75; Emin [7]: < 6%; Emin [8]: < 6%; IC50 [9]: 384 nM; IC50 [10]: 322 nM
CCc1ccc(Oc2cc(N3CCC(C(=O)N4CCc5ccccc5C4)CC3)ncn2)cc1	380	5.3	347	Kp [11]: 1.45; IC50 [4]: < 1500 nM; Fu (Brain): 0.001; Fu (Plasma [13]): 0.001; IC50 [5]: < 1500 nM; K(p,uu,brain) ([12]; brain): 0.36; Emin [14]: 13.1%; IC50 ([15]; read-out: IC50): 590 nM; IC50 ([15]; read-out: pIC50 (converted)): 562 nM; Fu (Plasma [16]): 0.004; IC50 [9]: < 1500 nM; IC50 [10]: < 1500 nM
O=C(C1CCN(c2cc(Oc3cccc(F)c3)ncn2)CC1)N1CCc2ccccc2C1	310	3.2	–	–
O=C(C1CCN(c2cc(Oc3ccc4c(c3)OCO4)ncn2)CC1)N1CCc2ccccc2C1	510	4.1	–	–
CN(Cc1ccccc1)C(=O)C1CCN(c2cc(Oc3ccc(F)cc3F)ncn2)CC1	> 10000	–	–	–
COc1ccc2c(c1)CCN(C(=O)C1CCN(c3cc(Oc4ccc(F)cc4F)ncn3)CC1)C2	580	5.5	562	–
COc1ccc2c(c1)CN(C(=O)C1CCN(c3cc(Oc4ccc(F)cc4F)ncn3)CC1)CC2	2470	11.8	2400	–
COc1ccc(Oc2cc(N3CCC(C(=O)N4CCc5ccccc5C4)CC3)ncn2)cc1	460	5.3	–	–
